Experimental data published in ChEMBL document CHEMBL6109139, “Rational Design of the First Dual Agonist at Trace Amine-Associated Receptor 1 and 5-HT2C Receptors Based on Binding Pocket Similarity for the Treatment of Schizophrenia and Alzheimer's Disease-Related Psychosis” (J Med Chem, 2025).
Active and inactive are the calls of the source. The rule behind the calls is not given here.

Assays:
[1] = target: T1, Trace amine-associated receptor 1 (Homo sapiens) (UniProt Q96RJ0); assay: Agonist activity at human TAAR1 extracted from CHO-K1 cell membrane coexpressing AGTRL1/Gi by measuring maximum efficacy at 0 to 100 uM by cAMP assay relative to control; format: functional, cell membranes; conditions: dose 0-100 µM
T1 sequence (whole entry): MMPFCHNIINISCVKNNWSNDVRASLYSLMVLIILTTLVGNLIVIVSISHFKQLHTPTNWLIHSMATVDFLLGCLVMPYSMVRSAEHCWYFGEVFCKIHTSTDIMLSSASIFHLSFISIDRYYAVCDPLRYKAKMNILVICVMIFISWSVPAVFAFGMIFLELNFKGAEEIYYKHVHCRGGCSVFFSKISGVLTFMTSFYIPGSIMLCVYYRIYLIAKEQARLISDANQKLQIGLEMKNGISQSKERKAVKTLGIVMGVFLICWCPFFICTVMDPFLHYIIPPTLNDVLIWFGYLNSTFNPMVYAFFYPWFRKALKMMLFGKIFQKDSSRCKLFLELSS

[2] = target: T2, Trace amine-associated receptor 1 (Homo sapiens, UniProt Q96RJ0); assay: Agonist activity at human TAAR1 extracted from CHO-K1 cell membrane coexpressing AGTRL1/Gi by cAMP assay; format: functional, cell membranes
T2 sequence (Q96RJ0 whole entry): T1 sequence (whole entry)

Mus musculus [3] = assay: Antipsychotic activity against DOI-induced head-twitch response in mouse assessed as reduction in head-twitch response at 10 mg/kg, IG measured for 30 mins; format: functional, organism-based
Mus musculus [4] = assay: Antipsychotic activity in amyloid beta (1 to 42) induced hyperlocomotion in mouse model assessed as decrease in total distance traveled at 10 mg/kg by open field test; format: functional, organism-based
Mus musculus [5] = assay: Antipsychotic activity in amyloid beta(1 to 42) induced cognitive impairment in mouse model assessed as increase in discrimination ratio of novel objects at 1 mg/kg, IG measured after 24 hrs by novel object recognition test; format: functional, organism-based
Mus musculus [6] = assay: Antipsychotic activity in amyloid beta(1 to 42) induced cognitive impairment in mouse model assessed as reduction in exploration time at 1 mg/kg, IG measured after 24 hrs by novel object recognition test; format: functional, organism-based
[7] = target: T3, 5-hydroxytryptamine receptor 2C (Homo sapiens, UniProt P28335); assay: Agonist activity at recombinant human 5-HT2CR expressed in HEK293 cells incubated for 2 hrs by FLIPR calcium assay; format: functional, cell-based
T3 sequence (P28335 whole entry): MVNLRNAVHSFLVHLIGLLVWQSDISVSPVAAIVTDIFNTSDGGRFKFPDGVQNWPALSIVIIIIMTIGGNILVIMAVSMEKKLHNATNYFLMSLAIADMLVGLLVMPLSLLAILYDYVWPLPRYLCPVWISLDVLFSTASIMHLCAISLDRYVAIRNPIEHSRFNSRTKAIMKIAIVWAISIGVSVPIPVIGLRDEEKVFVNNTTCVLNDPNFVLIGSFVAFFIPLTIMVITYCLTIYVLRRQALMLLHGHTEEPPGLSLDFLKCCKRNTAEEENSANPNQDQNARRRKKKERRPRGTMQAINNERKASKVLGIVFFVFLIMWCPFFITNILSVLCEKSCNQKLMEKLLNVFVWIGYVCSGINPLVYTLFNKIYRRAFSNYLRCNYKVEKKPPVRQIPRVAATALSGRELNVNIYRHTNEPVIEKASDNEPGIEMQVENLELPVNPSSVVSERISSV

[8] = target: T4, 5-hydroxytryptamine receptor 2C (Homo sapiens) (UniProt P28335); assay: Agonist activity at recombinant human 5-HT2CR expressed in HEK293 cells incubated for 2 hrs by measuring maximum efficacy by FLIPR calcium assay relative to control; format: functional, cell-based
T4 sequence (whole entry): T3 sequence (P28335 whole entry)

[9] = target: T4, 5-hydroxytryptamine receptor 2C (Homo sapiens); assay: Partial agonist activity at recombinant human 5-HT2CR expressed in HEK293 cells incubated for 2 hrs by measuring maximum efficacy by FLIPR calcium assay relative to control; format: functional, cell-based; conditions: filed as partial agonist
Mus musculus [10] = assay: Antipsychotic activity against MK-801 induced hypermobilization in male C57BL/6J mouse model assessed as reduction in hypermobilization state at 3 mg/kg, IG pretreated with compound followed by MK-801 addition and measured after 30 mins by open field test; format: functional, organism-based
Mus musculus [11] = assay: Antidepressant activity in chronic social defeat stress induced depressive C57BL/6J mouse model assessed as increase in time of interaction zone at 10 mg/kg, IG measured after 15 mins by open field test; format: functional, organism-based
[12] = target: 5-hydroxytryptamine receptor 2C (Rattus norvegicus) (UniProt P08909); assay: Agonist activity at rat 5-HT2CR by measuring maximum efficacy relative to control; format: functional; conditions: filed as agonist
Chain of 5-hydroxytryptamine receptor 2C (Rattus norvegicus) (P08909 whole entry): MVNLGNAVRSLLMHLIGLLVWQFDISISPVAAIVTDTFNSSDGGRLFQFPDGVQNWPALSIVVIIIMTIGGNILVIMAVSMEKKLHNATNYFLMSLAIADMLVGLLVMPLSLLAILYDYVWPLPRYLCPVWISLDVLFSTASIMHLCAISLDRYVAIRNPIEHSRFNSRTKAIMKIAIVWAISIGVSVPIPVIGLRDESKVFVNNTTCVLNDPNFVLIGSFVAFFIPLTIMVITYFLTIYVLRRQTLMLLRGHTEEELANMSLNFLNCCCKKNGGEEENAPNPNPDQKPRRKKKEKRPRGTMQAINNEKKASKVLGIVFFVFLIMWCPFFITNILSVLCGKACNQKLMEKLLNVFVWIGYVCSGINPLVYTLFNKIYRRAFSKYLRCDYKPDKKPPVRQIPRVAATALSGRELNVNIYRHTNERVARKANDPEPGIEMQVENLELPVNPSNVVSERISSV

[13] = target: Trace amine-associated receptor 1 (Mus musculus, UniProt Q923Y8); assay: Agonist activity at mouse TAAR1; format: functional
Chain of Trace amine-associated receptor 1 (Mus musculus, UniProt Q923Y8) (Q923Y8 whole entry): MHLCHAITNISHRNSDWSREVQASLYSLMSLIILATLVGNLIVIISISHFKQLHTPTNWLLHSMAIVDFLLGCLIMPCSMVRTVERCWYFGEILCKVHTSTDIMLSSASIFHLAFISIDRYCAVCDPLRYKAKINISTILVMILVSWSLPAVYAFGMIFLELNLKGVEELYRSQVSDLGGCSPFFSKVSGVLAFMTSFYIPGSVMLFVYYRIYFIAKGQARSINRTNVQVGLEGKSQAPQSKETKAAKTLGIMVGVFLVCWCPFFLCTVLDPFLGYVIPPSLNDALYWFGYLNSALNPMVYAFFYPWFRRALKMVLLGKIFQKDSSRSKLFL

[14] = target: Trace amine-associated receptor 1 (Mus musculus) (UniProt Q923Y8); assay: Agonist activity at mouse TAAR1 by measuring maximum efficacy relative to control; format: functional; conditions: filed as agonist
Chain of Trace amine-associated receptor 1 (Mus musculus) (Q923Y8 whole entry): as above

[15] = target: Trace amine-associated receptor 1 (Rattus norvegicus, UniProt Q923Y9); assay: Agonist activity at rat TAAR1; format: functional
Chain of Trace amine-associated receptor 1 (Rattus norvegicus, UniProt Q923Y9) (Q923Y9 whole entry): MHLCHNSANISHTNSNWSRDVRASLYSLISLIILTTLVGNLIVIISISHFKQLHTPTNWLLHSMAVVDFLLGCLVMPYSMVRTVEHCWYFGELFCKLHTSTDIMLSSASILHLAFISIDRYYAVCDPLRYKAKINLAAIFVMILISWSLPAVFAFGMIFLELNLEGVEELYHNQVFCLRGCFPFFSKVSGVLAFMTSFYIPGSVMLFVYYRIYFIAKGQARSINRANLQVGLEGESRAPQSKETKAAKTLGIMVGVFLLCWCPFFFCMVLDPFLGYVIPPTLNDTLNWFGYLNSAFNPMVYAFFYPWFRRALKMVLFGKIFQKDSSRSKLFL

[16] = target: Trace amine-associated receptor 1 (Rattus norvegicus) (UniProt Q923Y9); assay: Agonist activity at rat TAAR1 by measuring maximum efficacy relative to control; format: functional; conditions: filed as agonist
Chain of Trace amine-associated receptor 1 (Rattus norvegicus) (Q923Y9 whole entry): as above

Mus musculus [17] = species: Mus musculus; assay: Antipsychotic activity against MK-801 induced hyperlocomotion in male C57BL/6J mouse model assessed as effective dose; format: functional

Row | SMILES | Emax ([1]; filed as agonist) | EC50 [2] | also measured
1 | CNCC1SCCc2ccsc21 (stereo in doubt; 16b) [listing 1 of 2 here] | 74.6% |  | 
2 | CNCC1NCCc2ccsc21 (stereo in doubt; 17a) [listing 1 of 2 here] |  |  | Emax [1]: 33.8%
3 | CNCC1NCCc2ccsc21 (stereo in doubt; 17a) [listing 2 of 2 here] |  | 42.1 µM | 
4 | CCCN1CCc2ccsc2C1CN (stereo in doubt; 19a) [listing 1 of 2 here] |  |  | Emax [1]: 35.7%
5 | CNCC1SCCc2ccsc21 (stereo in doubt; 16b) [listing 2 of 2 here] |  | 0.522 µM | 
6 | CNCC1SCCc2ccsc21 (stereo in doubt; 16a) [listing 1 of 2 here] |  |  | Emax [1]: 37.4%
7 | c1cc2c(s1)CCN1CCNCC21 (stereo in doubt; 23b) [listing 1 of 2 here] | 77% |  | 
8 | c1cc2c(o1)C1CNCCN1CC2 (stereo in doubt; 22b) [listing 1 of 2 here] | 94.3% |  | 
9 | c1cc2c(o1)C1CNCCN1CC2 (stereo in doubt; 22a) [listing 1 of 2 here] |  | 0.036 µM | 
10 | c1csc(C2CNCO2)c1 (racemic) | 97% | 6.4 µM | 
11 | OCC1OCCc2ccsc21 (stereo in doubt; 15a) [listing 1 of 2 here] |  | > 100 µM | 
12 | c1cc2c(s1)CCN1CCNCC21 (stereo in doubt; 23b) [listing 2 of 2 here] |  | 1.03 µM | 
13 | COc1ccc(C2CNCCO2)s1 (stereo in doubt; 27a) [listing 1 of 2 here] | 69% |  | 
14 | FC(F)(F)COc1ccsc1C1CNCCO1 (racemic) | 97.7% |  | 
15 | COc1ccc(C2CNCCO2)s1 (stereo in doubt; 27b) [listing 1 of 2 here] | 96.9% |  | 
16 | c1cc2c(o1)C1CNCCN1CC2 (stereo in doubt; 22b) [listing 2 of 2 here] |  | 0.776 µM | 
17 | CNCC1NCCc2ccsc21 (stereo in doubt; 17b) [listing 1 of 2 here] |  | 7.96 µM | 
18 | CC(=O)c1ccsc1C1CNCCO1 (stereo in doubt; 36b) [listing 1 of 2 here] |  | 15.2 µM | 
19 | CNCC1NCCc2ccsc21 (stereo in doubt; 17b) [listing 2 of 2 here] | 61.2% |  | 
20 | CC(C)Oc1ccsc1C1CNCCO1 (racemic) |  | > 100 µM | Emax [1]: 18.1%
21 | CC(=O)c1ccsc1C1CNCCO1 (stereo in doubt; 36b) [listing 2 of 2 here] | 41.7% |  | 
22 | O=c1ccc2ccc(OCCCCN3CCN(c4cccc5sccc45)CC3)cc2[nH]1 |  |  | Activity (Mus musculus [3]): Active; Activity (Mus musculus [4]): Active; Activity (Mus musculus [5]): inactive; Activity (Mus musculus [6]): Active

Row | SMILES | Emax ([1]; filed as agonist) | EC50 [2] | also measured
23 | CNCC1SCCc2ccsc21 (stereo in doubt; 16a) [listing 2 of 2 here] |  | 20.7 µM | 
24 | CN1CCc2ccsc2C1CN (stereo in doubt; 18a) [listing 1 of 2 here] |  |  | Emax [1]: 18.9%
25 | c1cc2c(s1)CCN1CCNCC21 (stereo in doubt; 23a) [listing 1 of 2 here] |  | 14.2 µM | 
26 | c1csc([C@@H]2CNCCO2)c1 | 80.1% |  | EC50 [7]: 3.49 µM; Emax ([8]; filed as agonist): 101%
27 | Fc1ccc(C2CNCCO2)s1 (racemic) | 80.8% |  | 
28 | FC(F)COc1ccsc1C1CNCCO1 (racemic) | 75.2% | 32.4 µM | 
29 | OCC1OCCc2ccsc21 (stereo in doubt; 15a) [listing 2 of 2 here] |  |  | Emax [1]: 1.94%
30 | COc1csc(C2CNCCO2)c1 (stereo in doubt; 26a) [listing 1 of 2 here] | 63.8% |  | 
31 | COc1csc(C2CNCCO2)c1 (stereo in doubt; 26a) [listing 2 of 2 here] |  | 23.6 µM | 
32 | CC(=O)c1ccsc1C1CNCCO1 (stereo in doubt; 36a) [listing 1 of 2 here] |  |  | Emax [1]: 2.04%
33 | COc1ccsc1C1CNCCO1 (stereo in doubt; 25a) | 94.1% |  | Emax [9]: 68.3%; Activity (Mus musculus [10]): Active; Similar Effect Compared To Ulotaront
34 | CCCCCN1CCc2ccsc2C1CN (stereo in doubt; 20a) [listing 1 of 2 here] |  |  | Emax [1]: 0%
35 | CN1CCc2ccsc2C1CN (stereo in doubt; 18a) [listing 2 of 2 here] |  | > 100 µM | 
36 | COc1ccc(C2CNCCO2)s1 (stereo in doubt; 27a) [listing 2 of 2 here] |  | 37.5 µM | 
37 | CNCC1OC(C)(C)Cc2ccsc21 (racemic) | 99.6% |  | 
38 | Cc1cc2c(s1)Nc1ccccc1N=C2N1CCN(C)CC1 |  |  | Activity (Mus musculus [11]): Active
39 | COc1ccc(C2CNCCO2)s1 (stereo in doubt; 27b) [listing 2 of 2 here] |  | 1.59 µM | 
40 | CC(=O)c1ccsc1C1CNCCO1 (stereo in doubt; 36a) [listing 2 of 2 here] |  | > 100 µM | 
41 | c1cc2c(o1)C1CNCCN1CC2 (stereo in doubt; 22a) [listing 2 of 2 here] | 95.6% |  | 
42 | COc1csc(C2CNCCO2)c1 (stereo in doubt; 26b) [listing 1 of 2 here] | 85.6% |  | 
43 | Fc1csc(C2CNCCO2)c1 (racemic) | 107% |  | 
44 | CN1CCc2ccsc2C1CN (stereo in doubt; 18b) | 96.5% |  | 

Row | SMILES | Emax ([1]; filed as agonist) | EC50 [2] | also measured
45 | CCCN1CCc2ccsc2C1CN (stereo in doubt; 19b) [listing 1 of 2 here] |  | 6.93 µM | 
46 | c1cc2c(s1)CCN1CCNCC21 (stereo in doubt; 23a) [listing 2 of 2 here] | 51% |  | 
47 | COc1csc(C2CNCCO2)c1 (stereo in doubt; 26b) [listing 2 of 2 here] |  | 2.16 µM | 
48 | NCCc1c[nH]c2ccc(O)cc12 |  |  | Emax [12]: 102%
49 | Fc1ccsc1C1CNCCO1 (racemic) | 100% | 0.252 µM | 
50 | CCCN1CCc2ccsc2C1CN (stereo in doubt; 19b) [listing 2 of 2 here] |  |  | Emax [1]: 34.3%
51 | CCCCCN1CCc2ccsc2C1CN (stereo in doubt; 20b) |  |  | Emax [1]: 15.6%
52 | COc1ccsc1C1CNCCO1 (stereo in doubt; 25b) | 76.4% |  | 
53 | CC1(c2cccs2)CNCCO1 (racemic) | 92.6% | 20.7 µM | 
54 | FCCOc1ccsc1C1CNCCO1 (racemic) | 46.7% |  | 
55 | CNCC1OC(COC)Cc2ccsc21 (racemic) | 64% | 38 µM | 
56 | OCC1OCCc2ccsc21 (stereo in doubt; 15b) |  |  | Emax [1]: 2.72%
57 | NCCc1ccc(O)cc1 [TYRAMINE] | 103% | 0.93 µM | EC50 [13]: 0.85 µM; Emax [14]: 103%; EC50 [15]: 0.228 µM; Emax [16]: 99%
58 | CNCC1OCCc2ccoc21 (racemic) | 105% |  | 
59 | c1cc(C2CC2)c(C2CNCCO2)s1 (racemic) | 98.6% |  | 
60 | CCc1[nH]nc(C(=O)Nc2ccc([C@H]3CNCCO3)cc2)c1C [RALMITARONT] | 66% |  | EC50 [7]: > 100 µM; Emax [8]: 0.13%; ED50 (Mus musculus [17]): < 400 mg/kg
61 | CCCCCN1CCc2ccsc2C1CN (stereo in doubt; 20a) [listing 2 of 2 here] |  | > 30 µM | 
62 | CNCC1OCC(C)(C)c2ccsc21 (racemic) | 53.3% | 24.1 µM | 
63 | CCCN1CCc2ccsc2C1CN (stereo in doubt; 19a) [listing 2 of 2 here] |  | 7.97 µM | 
64 | c1ccc2sc(C3CNCCO3)cc2c1 (racemic) | 72.1% | 4.35 µM | 
65 | c1ccc2c(c1)CCN1CCNCC21 (racemic) [AZAQUINZOLE] |  | 41.7 µM | Emax [1]: 37.2%
66 | COc1ccccc1C1CNCCO1 (racemic) | 79% | 1.39 µM | 
